Measurements reported in article PMC10318822, “Phase 1 dose-escalation study to evaluate the safety, tolerability, pharmacokinetics, and anti-tumor activity of FCN-159 in adults with neurofibromatosis type 1-related unresectable plexiform neurofibromas” (BMC Medicine, 2023).

Test system: adult patients with NF1-related PN
Assay: Phase I dose-escalation: DLT, MTD, RP2D and drug-related TEAEs (CTCAE v5.0)
Experimental: This is a multicenter, open-label, single-arm, non-randomized, phase I dose-escalation trial to evaluate the safety, tolerability, pharmacokinetic (PK), and anti-tumor activity of orally administered FCN-159 in adult patients with NF1 (NCT04954001). Phase I commenced with dose escalation in adult patients following a standard 3 + 3 design (Supplementary Table S1) to determine the maximum tolerated dose (MTD) of FCN-159 administered daily under fasting conditions (defined as no food or drink 1 h before and 2 h after each dose) in 28-day cycles. Study drug was dispensed at the study site and patient adherence was monitored by the records of drug dispensation and return. Patients were on treatment until PD, death, patient's voluntary withdrawal from study treatment, or study termination. The study was followed for 2 years after the last patient in. The starting dose was 4 mg, escalating in cohorts of at least three evaluable patients at 6 mg, 8 mg, and 12 mg until the MTD was determined. The starting dose in this study was determined based on available data from a phase 1a, first-in-human study of FCN-159 in patients with advanced NRAS ^mut+ melanoma at the time of study design. […] Dose expansion at a likely RP2D level enrolled approximately six patients. The highest dose level with a dose-limiting toxicity (DLT) incidence rate ≤ 33% (0/3 or 1/6 patients) was to be considered the MTD. If patients experienced grade ≥ 3 and/or unacceptable toxic events that were considered as at least possibly related to the study treatment, the study treatment was discontinued and supportive treatment was given in accordance with local treatment routines. If the toxicity returned to grade ≤ 2 within 28 days after the occurrence, and there was no progression on patients’ conditions or the investigator believed that patients could benefit from the study treatment, the original dose could be maintained or reduced after discussion with medical monitor. After completion of the dose escalation part of the study, PK, efficacy, safety, and tolerability data were analyzed to select the RP2D.
Primary endpoints of the study were the DLT incidence rate, MTD, and RP2D. Secondary endpoints included other safety assessments, imaging tumor response (complete response [CR], PR, stable disease [SD], or progressive disease [PD]), and PK parameters of FCN-159. Adverse events were graded per CTCAE v5.0.
All patients underwent a complete medical history, physical examination, Eastern Cooperative Oncology Group (ECOG) assessment, and laboratory analysis of test results. Drug-related TEAEs, serious adverse events (SAEs), TEAEs of grade ≥ 3 toxicity, and TEAEs leading to drug discontinuation were reviewed on an ongoing basis. Efficacy was assessed by radiologic scans and clinical assessment. Tumor assessments per Response Evaluation in Neurofibromatosis Schwannomatosis criteria were performed by investigators using MRI volumetric analysis every 4 cycles within the first 2 years (± 7 days) and every 6 cycles after 2 years (± 14 days) until PD, death, patient's voluntary withdrawal from study treatment, or study termination. MRI sequences of […], T1- and T2-weighted sequences were chosen and the software of Extended Brilliance Workspace, SIGNA Premier and uExceed were used for MRI volumetric analysis. The same software was used for all tumor assessments at baseline and subsequent assessed timepoints of the same patient. Pain was assessed by an 11-point numerical rating scale (NRS-11).
The sample size for the dose-escalation study was estimated to be 24 based on the 3 + 3 method. Safety was analyzed in patients who received at least one dose of FCN-159 and had at least one safety assessment. DLT was assessed in the DLT analysis set, defined as patients who were enrolled in the dose-escalation study and met the DLT evaluation criteria.

Cn1c(=O)c(F)c(Nc2ccc(I)cc2F)c2c(=O)n(C3CC3)nc(-c3cccc(NS(=O)(=O)C4CC4)c3)c21 [FCN-159]
Drug-related TEAE: Urticaria (12 mg (N = 4)): 1 (25.0) n (%)
Drug-related TEAE: Vision blurred (12 mg (N = 4)): 0 n (%)
Drug-related TEAE: Visual acuity reduced (12 mg (N = 4)): 0 n (%)
Drug-related TEAE: pH urine decreased (12 mg (N = 4)): 0 n (%)
Drug-related TEAE: pH urine increased (12 mg (N = 4)): 0 n (%)
Subjects with any drug-related TEAE (12 mg (N = 4)): 4 (100) n (%)
Patients with DLT (grade 3 folliculitis) (12 mg, 3 of 3 patients): 100%
Drug-related TEAE: Abdominal pain (Total (N = 19)): 1 (5.3) n (%)
Drug-related TEAE: Acne (Total (N = 19)): 1 (5.3) n (%)
Drug-related TEAE: Acne pustular (Total (N = 19)): 1 (5.3) n (%)
Drug-related TEAE: Alanine aminotransferase increased (Total (N = 19)): 2 (10.5) n (%)
Drug-related TEAE: Albumin globulin ratio decreased (Total (N = 19)): 1 (5.3) n (%)
Drug-related TEAE: Alopecia (Total (N = 19)): 5 (26.3) n (%)
Drug-related TEAE: Amylase increased (Total (N = 19)): 1 (5.3) n (%)
Drug-related TEAE: Anemia (Total (N = 19)): 1 (5.3) n (%)
Drug-related TEAE: Aortic dilatation (Total (N = 19)): 1 (5.3) n (%)
Drug-related TEAE: Aspartate aminotransferase increased (Total (N = 19)): 2 (10.5) n (%)
Drug-related TEAE: Asthenia (Total (N = 19)): 1 (5.3) n (%)
Drug-related TEAE: Beta globulin decreased (Total (N = 19)): 1 (5.3) n (%)
Drug-related TEAE: Beta globulin increased (Total (N = 19)): 2 (10.5) n (%)
Drug-related TEAE: Blood alkaline phosphatase increased (Total (N = 19)): 6 (31.6) n (%)
Drug-related TEAE: Blood bilirubin increased (Total (N = 19)): 5 (26.3) n (%)
Drug-related TEAE: Blood creatine phosphokinase increased (Total (N = 19)): 3 (15.8) n (%)
Drug-related TEAE: Blood fibrinogen increased (Total (N = 19)): 4 (21.1) n (%)
Drug-related TEAE: Blood lactate dehydrogenase increased (Total (N = 19)): 4 (21.1) n (%)
Drug-related TEAE: Blood pressure increased (Total (N = 19)): 1 (5.3) n (%)
Drug-related TEAE: Blood urea increased (Total (N = 19)): 4 (21.1) n (%)
Drug-related TEAE: Blood uric acid increased (Total (N = 19)): 2 (10.5) n (%)
Drug-related TEAE: Breath odor (Total (N = 19)): 3 (15.8) n (%)
Drug-related TEAE: Capillary disorder (Total (N = 19)): 1 (5.3) n (%)
Drug-related TEAE: Constipation (Total (N = 19)): 3 (15.8) n (%)
Drug-related TEAE: Decreased appetite (Total (N = 19)): 1 (5.3) n (%)
Drug-related TEAE: Dermatitis acneiform (Total (N = 19)): 1 (5.3) n (%)
Drug-related TEAE: Diarrhea (Total (N = 19)): 1 (5.3) n (%)
Drug-related TEAE: Drug eruption (Total (N = 19)): 5 (26.3) n (%)
Drug-related TEAE: Dyslipidemia (Total (N = 19)): 2 (10.5) n (%)
Drug-related TEAE: Ejection fraction decreased (Total (N = 19)): 1 (5.3) n (%)
Drug-related TEAE: Electrocardiogram QT prolonged (Total (N = 19)): 1 (5.3) n (%)
Drug-related TEAE: Electrocardiogram abnormal (Total (N = 19)): 2 (10.5) n (%)
Drug-related TEAE: Epistaxis (Total (N = 19)): 2 (10.5) n (%)
Drug-related TEAE: Folliculitis (Total (N = 19)): 9 (47.4) n (%)
Drug-related TEAE: Functional gastrointestinal disorder (Total (N = 19)): 1 (5.3) n (%)
Drug-related TEAE: Gamma-glutamyltransferase increased (Total (N = 19)): 1 (5.3) n (%)
Drug-related TEAE: Gingival pain (Total (N = 19)): 1 (5.3) n (%)
Drug-related TEAE: Hyperlipidemia (Total (N = 19)): 1 (5.3) n (%)
Drug-related TEAE: Hypertension (Total (N = 19)): 1 (5.3) n (%)
Drug-related TEAE: Hypoalbuminemia (Total (N = 19)): 1 (5.3) n (%)
Drug-related TEAE: Hypocalcemia (Total (N = 19)): 2 (10.5) n (%)
Drug-related TEAE: Hypophosphatemia (Total (N = 19)): 1 (5.3) n (%)
Drug-related TEAE: Hypoproteinemia (Total (N = 19)): 1 (5.3) n (%)
Drug-related TEAE: Immunoglobulins increased (Total (N = 19)): 4 (21.1) n (%)
Drug-related TEAE: Impetigo (Total (N = 19)): 1 (5.3) n (%)
Drug-related TEAE: Left atrial enlargement (Total (N = 19)): 1 (5.3) n (%)
Drug-related TEAE: Lipoprotein abnormal (Total (N = 19)): 1 (5.3) n (%)
Drug-related TEAE: Malaise (Total (N = 19)): 1 (5.3) n (%)
Drug-related TEAE: Menstrual disorder (Total (N = 19)): 2 (10.5) n (%)
Drug-related TEAE: Mitral valve incompetence (Total (N = 19)): 4 (21.1) n (%)
Drug-related TEAE: Mouth ulceration (Total (N = 19)): 4 (21.1) n (%)
Drug-related TEAE: Muscular weakness (Total (N = 19)): 1 (5.3) n (%)
Drug-related TEAE: Oedema peripheral (Total (N = 19)): 1 (5.3) n (%)
Drug-related TEAE: Pain in extremity (Total (N = 19)): 1 (5.3) n (%)
Drug-related TEAE: Paronychia (Total (N = 19)): 6 (31.6) n (%)
Drug-related TEAE: Prealbumin decreased (Total (N = 19)): 1 (5.3) n (%)
Drug-related TEAE: Protein urine present (Total (N = 19)): 5 (26.3) n (%)
Drug-related TEAE: Pruritus (Total (N = 19)): 1 (5.3) n (%)
Drug-related TEAE: QRS axis abnormal (Total (N = 19)): 4 (21.1) n (%)
Drug-related TEAE: Rash (Total (N = 19)): 3 (15.8) n (%)
Drug-related TEAE: Sinus arrhythmia (Total (N = 19)): 1 (5.3) n (%)
Drug-related TEAE: Sinus bradycardia (Total (N = 19)): 1 (5.3) n (%)
Drug-related TEAE: Sinusitis (Total (N = 19)): 1 (5.3) n (%)
Drug-related TEAE: Skin exfoliation (Total (N = 19)): 1 (5.3) n (%)
Drug-related TEAE: Specific gravity urine increased (Total (N = 19)): 5 (26.3) n (%)
Drug-related TEAE: Stomatitis (Total (N = 19)): 7 (36.8) n (%)
Drug-related TEAE: Supraventricular extrasystoles (Total (N = 19)): 1 (5.3) n (%)
Drug-related TEAE: Total bile acids increased (Total (N = 19)): 3 (15.8) n (%)
Drug-related TEAE: Tricuspid valve incompetence (Total (N = 19)): 3 (15.8) n (%)
Drug-related TEAE: Urinary occult blood positive (Total (N = 19)): 3 (15.8) n (%)
Drug-related TEAE: Urinary sediment present (Total (N = 19)): 1 (5.3) n (%)
Drug-related TEAE: Urinary tract infection (Total (N = 19)): 1 (5.3) n (%)
Drug-related TEAE: Urine ketone body present (Total (N = 19)): 2 (10.5) n (%)
Drug-related TEAE: Urobilinogen urine increased (Total (N = 19)): 5 (26.3) n (%)
Drug-related TEAE: Urticaria (Total (N = 19)): 1 (5.3) n (%)
Drug-related TEAE: Vision blurred (Total (N = 19)): 1 (5.3) n (%)
Drug-related TEAE: Visual acuity reduced (Total (N = 19)): 1 (5.3) n (%)
Drug-related TEAE: pH urine decreased (Total (N = 19)): 3 (15.8) n (%)
Drug-related TEAE: pH urine increased (Total (N = 19)): 2 (10.5) n (%)
Subjects with any drug-related TEAE (Total (N = 19)): 19 (100) n (%)
Patients with grade 3 drug-related folliculitis (all dose levels): five
Patients with grade 3 drug-related paronychia (all dose levels): four
Patients with FCN-159-related TEAEs (all dose levels, n = 19): 100%
Patients with grade 3 study-drug-related TEAEs (all dose levels, nine of 19 patients): 47.4%
Blurred vision (all patients, n = 1/19): 5.3%
Reduced visual acuity (all patients, n = 1/19): 5.3%
Drug-related TEAE mouth ulceration (all patients, n = 4/19): 21.1%
Drug-related TEAE increased blood alkaline phosphatase (all patients, n = 6/19): 31.6%
Drug-related TEAE paronychia (all patients, n = 6/19): 31.6%
Drug-related TEAE stomatitis (all patients, n = 7/19): 36.8%
Drug-related TEAE folliculitis (all patients, n = 9/19): 47.4%
Drug-related gastrointestinal disorders (all patients, twelve patients): 63.2%
Patients with eye disorders (all patients, two patients): 10.5%
Recommended phase II dose (RP2D) (daily): 8 mg
Maximum tolerated dose (MTD) (daily, 28-day cycles, fasting): 8 mg
Deaths during the study (in vivo): No patients died
Dose reduction (mainly due to grade 3 paronychia and folliculitis): 42.1%
Grade 3 drug-related TEAE in patients receiving doses below the MTD (paronychia, 6 mg dose): Only one
SAE during treatment that led to drug withdrawal (rhegmatogenous retinal detachment, present at baseline, considered unrelated to the study drug): One patient
